Measured values as given in patent publication US6737383B1, “Herbicidal oxadiazolidines” (priority 1999, dated 2004).

Key:
sugar beet = experiment: Test B pre/postemergence sugar beet; format: in vivo, Beta vulgaris
In short: (§1)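 Response is a visual 0-to-10 score relative to untreated plants, where 0 means no effect and 10 means complete control, taken twelve to sixteen days after application. Treatments went onto soil at planting and onto foliage of 1- to 4-leaf plants, using a surfactant-containing non-phytotoxic solvent.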

cocklebur = experiment: Test B pre/postemergence cocklebur; format: in vivo, Xanthium strumarium
In short: as §1

velvetleaf = experiment: Test B pre/postemergence velvetleaf; format: in vivo, Abutilon theophrasti
In short: as §1

smallflower flatsedge = experiment: Test B flood test smallflower flatsedge; format: in vivo, Cyperus difformis
In short: (§2)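 Plants were grown to the 2-leaf stage before treatment with test chemical, then held in a greenhouse for twelve to sixteen days. Injury was visually rated against untreated controls on a 0–10 scale, where 0 is no effect and 10 is complete control.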

soybean = experiment: Test B pre/postemergence soybean; format: in vivo, Glycine max
In short: as §1

duck salad = experiment: Test B flood test duck salad; format: in vivo, Heteranthera limosa
In short: as §2

morningglory = experiment: Test B pre/postemergence morningglory; format: in vivo, Ipomoea hederacea
In short: as §1

bamyardgrass = experiment: Test B flood test barnyardgrass; format: in vivo, Echinochloa crus-galli
In short: as §2

corn = experiment: Test B pre/postemergence corn; format: in vivo, Zea mays
In short: as §1

surinam grass = experiment: Test B pre/postemergence surinam grass; format: in vivo, Brachiaria decumbens
In short: as §1

crabgrass = experiment: Test B pre/postemergence crabgrass; format: in vivo, Digitaria sanguinalis
In short: as §1

rape = experiment: Test B pre/postemergence rape; format: in vivo, Brassica napus
In short: as §1

wheat = experiment: Test B pre/postemergence wheat; format: in vivo, Triticum aestivum
In short: as §1

bedstraw = experiment: Test B pre/postemergence bedstraw; format: in vivo, Galium aparine; conditions: Postemergence, Rate 62 g/ha; scale 0 to 10, 0 is no effect, 10 is complete control
In short: as §1

blackgrass = experiment: Test B pre/postemergence blackgrass; format: in vivo, Alopecurus myosuroides
In short: as §1

purple nutsedge = experiment: Test B pre/postemergence purple nutsedge; format: in vivo, Cyperus rotundus
In short: as §1

rice = experiment: Test B flood test rice; format: in vivo, Oryza sativa
In short: as §2

pigweed = experiment: Test B pre/postemergence pigweed; format: in vivo, Amaranthus retroflexus
In short: as §1

giant foxtail = experiment: Test B pre/postemergence giant foxtail; format: in vivo, Setaria faberii
In short: as §1

wild oat = experiment: Test B pre/postemergence wild oat; format: in vivo, Avena fatua
In short: as §1

[1] = Postemergence, Rate 62 g/ha, scale 0 to 10, 0 is no effect, 10 is complete control
[2] = Postemergence, Rate 125 g/ha, scale of 0 to 10 where 0 is no effect and 10 is complete control
[3] = Preemergence, Rate 62 g/ha, scale of 0 to 10 where 0 is no effect and 10 is complete control
[4] = Preemergence, Rate 125 g/ha, scale of 0 to 10 where 0 is no effect and 10 is complete control
[5] = Preemergence, Rate 250 g/ha, scale 0 to 10 (0 no effect, 10 complete control)
[6] = Preemergence, Rate 500 g/ha, scale of 0 to 10 where 0 is no effect and 10 is complete control
[7] = Postemergence, Rate 250 g/ha, scale of 0 to 10, 0 is no effect, 10 is complete control
[8] = Postemergence, Rate 500 g/ha, scale of 0 to 10 where 0 is no effect and 10 is complete control
[9] = Rate 62 g/ha, flood test species, Pre-emergence, visual evaluation after twelve to sixteen days
[10] = Rate 125 g/ha, under heading Pre-emergence, flood test species, visual evaluation after twelve to sixteen days
[11] = Rate 250 g/ha, Pre-emergence (flood test species), scale 0 to 10, 0 is no effect, 10 is complete control
[12] = Rate 500 g/ha, Pre-emergence section of Table B, 0 to 10 scale (0 no effect, 10 complete control)

## CC(C)N(C(=O)n1oc(=O)n(CCCC#N)c1=O)c1ccc(F)cc1 [Compound 647]
Sugar beet; [1]
  Plant response rating, Sugarbeets: 1
Sugar beet; [2]
  Sugarbeets plant response rating: 2
Sugar beet; [3]
  Sugarbeets plant response rating: 7
Sugar beet; [4]
  Sugarbeets plant response rating: 8
Sugar beet; [5]
  Plant response rating, Sugarbeets: 8
Sugar beet; [6]
  Plant response rating, Sugarbeets: 8
cocklebur; [1]
  Plant response rating, Cocklebur: 0
cocklebur; [2]
  Cocklebur plant response rating: 0
cocklebur; [7]
  Cocklebur plant response rating: 4
cocklebur; [8]
  Plant response rating, Cocklebur: 4
cocklebur; [3]
  Cocklebur plant response rating: 0
cocklebur; [4]
  Cocklebur plant response rating: 0
cocklebur; [5]
  Plant response rating, Cocklebur: 1
cocklebur; [6]
  Plant response rating, Cocklebur: 7
velvetleaf; [1]
  Plant response rating, Velvetleaf: 5
velvetleaf; [2]
  Velvetleaf plant response rating: 5
velvetleaf; [3]
  Velvetleaf plant response rating: 6
velvetleaf; [4]
  Velvetleaf plant response rating: 8
velvetleaf; [5]
  Plant response rating, Velvetleaf: 8
velvetleaf; [6]
  Plant response rating, Velvetleaf: 9
Smallflower flatsedge; [9]
  Plant response rating, S. Flatsedge (0 to 10 scale, 0 is no effect, 10 is complete control): 0
Smallflower flatsedge; [10]
  S. Flatsedge plant response rating (0 to 10 scale, 0 is no effect, 10 is complete control): 0
Smallflower flatsedge; [11]
  S. Flatsedge plant response rating: 0
Smallflower flatsedge; [12]
  S. Flatsedge plant response rating: 0
soybean; [1]
  Plant response rating, Soybean: 2
soybean; [2]
  Soybean plant response rating: 3
soybean; [3]
  Soybean plant response rating: 0
soybean; [4]
  Soybean plant response rating: 0
soybean; [5]
  Plant response rating, Soybean: 1
soybean; [6]
  Plant response rating, Soybean: 1
Duck salad; [9]
  Plant response rating, Ducksalad (0 to 10 scale, 0 is no effect, 10 is complete control): 0
Duck salad; [10]
  Ducksalad plant response rating (0 to 10 scale, 0 is no effect, 10 is complete control): 0
Duck salad; [11]
  Ducksalad plant response rating: 0
Duck salad; [12]
  Ducksalad plant response rating: 0
morningglory; [1]
  Plant response rating, Morningglory: 0
morningglory; [2]
  Morningglory plant response rating: 0
morningglory; [7]
  Morningglory plant response rating: 2
morningglory; [8]
  Plant response rating, Morningglory: 6
morningglory; [3]
  Morningglory plant response rating: 0
morningglory; [4]
  Morningglory plant response rating: 0
morningglory; [5]
  Plant response rating, Morningglory: 7
morningglory; [6]
  Plant response rating, Morningglory: 7
bamyardgrass; [9]
  Plant response rating, Barnyardgrass (0 to 10 scale, 0 is no effect, 10 is complete control): 0
bamyardgrass; [10]
  Barnyardgrass plant response rating (0 to 10 scale, 0 is no effect, 10 is complete control): 0
bamyardgrass; [11]
  Barnyardgrass plant response rating: 0
bamyardgrass; [12]
  Barnyardgrass plant response rating: 0
corn; [1]
  Plant response rating, Corn: 0
corn; [2]
  Corn plant response rating: 2
corn; [7]
  Corn plant response rating: 5
corn; [8]
  Plant response rating, Corn: 6
corn; [3]
  Corn plant response rating: 0
corn; [4]
  Corn plant response rating: 3
corn; [5]
  Plant response rating, Corn: 5
corn; [6]
  Plant response rating, Corn: 10
Surinam grass; [1]
  Plant response rating, B. signalgrass: 4
Surinam grass; [2]
  Plant response rating, B. signalgrass: 6
Surinam grass; [7]
  B. signalgrass plant response rating: 7
Surinam grass; [8]
  Plant response rating, B. signalgrass: 8
Surinam grass; [3]
  B. signalgrass plant response rating: 3
Surinam grass; [4]
  B. signalgrass plant response rating: 7
Surinam grass; [5]
  Plant response rating, B. signalgrass: 9
Surinam grass; [6]
  Plant response rating, B. signalgrass: 10
crabgrass; [1]
  Plant response rating, Crabgrass: 7
crabgrass; [2]
  Crabgrass plant response rating: 9
crabgrass; [7]
  Crabgrass plant response rating: 9
crabgrass; [8]
  Plant response rating, Crabgrass: 9
crabgrass; [3]
  Crabgrass plant response rating: 8
crabgrass; [4]
  Crabgrass plant response rating: 8
crabgrass; [5]
  Plant response rating, Crabgrass: 9
crabgrass; [6]
  Plant response rating, Crabgrass: 9
rape; [1]
  Plant response rating, Rape: 0
rape; [2]
  Rape plant response rating: 0
rape; [8]
  Plant response rating, Rape: 7
rape; [3]
  Rape plant response rating: 5
rape; [4]
  Rape plant response rating: 8
rape; [5]
  Plant response rating, Rape: 10
rape; [6]
  Plant response rating, Rape: 10
wheat; [1]
  Plant response rating, Wheat: 0
wheat; [2]
  Wheat plant response rating: 3
wheat; [3]
  Wheat plant response rating: 1
wheat; [4]
  Wheat plant response rating: 6
wheat; [5]
  Plant response rating, Wheat: 8
wheat; [6]
  Plant response rating, Wheat: 8
bedstraw
  Plant response rating, Bedstraw: 0
blackgrass; [1]
  Plant response rating, Blackgrass: 6
blackgrass; [7]
  Blackgrass plant response rating: 7
blackgrass; [8]
  Plant response rating, Blackgrass: 8
blackgrass; [3]
  Blackgrass plant response rating: 7
blackgrass; [4]
  Blackgrass plant response rating: 9
blackgrass; [5]
  Plant response rating, Blackgrass: 10
blackgrass; [6]
  Plant response rating, Blackgrass: 10
Purple nutsedge; [1]
  Plant response rating, Nutsedge: 0
Purple nutsedge; [2]
  Nutsedge plant response rating: 0
Purple nutsedge; [8]
  Plant response rating, Nutsedge: 6
Purple nutsedge; [3]
  Nutsedge plant response rating: 0
Purple nutsedge; [4]
  Nutsedge plant response rating: 0
rice; [9]
  Plant response rating, Rice (0 to 10 scale, 0 is no effect, 10 is complete control): 0
rice; [10]
  Rice plant response rating (0 to 10 scale, 0 is no effect, 10 is complete control): 0
rice; [11]
  Rice plant response rating: 0
rice; [12]
  Rice plant response rating: 0
pigweed; [1]
  Plant response rating, Redroot pigweed: 0
pigweed; [2]
  Redroot pigweed plant response rating: 4
pigweed; [3]
  Redroot pigweed plant response rating: 10
pigweed; [4]
  Redroot pigweed plant response rating: 10
pigweed; [5]
  Plant response rating, Redroot pigweed: 10
pigweed; [6]
  Plant response rating, Redroot pigweed: 10
Giant foxtail; [1]
  Plant response rating, Giant foxtail: 8
Giant foxtail; [2]
  Giant foxtail plant response rating: 9
Giant foxtail; [7]
  Giant foxtail plant response rating: 9
Giant foxtail; [8]
  Plant response rating, Giant foxtail: 9
Giant foxtail; [3]
  Giant foxtail plant response rating: 9
Giant foxtail; [4]
  Giant foxtail plant response rating: 10
Giant foxtail; [5]
  Plant response rating, Giant foxtail: 10
Giant foxtail; [6]
  Plant response rating, Giant foxtail: 10
Wild oat; [1]
  Plant response rating, Wild oats: 0
Wild oat; [2]
  Wild oats plant response rating: 0
Wild oat; [3]
  Wild oats plant response rating: 5
Wild oat; [4]
  Wild oats plant response rating: 8
Wild oat; [5]
  Plant response rating, Wild oats: 9
Wild oat; [6]
  Plant response rating, Wild oats: 10
